From patent US12648948B2, “Methods and compositions for treating cancer” (UNITED STATES GOVERNMENT AS REPRESENTED BY THE DEPARTMENT …, priority 2017, dated 2026)

Columns and labels:
[1] = test system: JNK-Axl-ERK signaling axis; assay: Signal transduction in intracranial GBM9 tumors (Western blot, IHC); format: in vivo, mice; details: thalidomide given with erlotinib
Procedure: To detect the in vivo levels of TNF, 1×10^6 GBM9 cells were injected into the right flanks of nude mice. When the subcutaneous tumor reached a volume of around 200 mm^3, the mice were treated with erlotinib to monitor the upregulation of TNF protein. The animals were dosed consecutively for 1, 2, 7 or 14 days and then sacrificed. The animals without treatment were considered as control (0-day treatment). Tumor tissues were rinsed in PBS and protein was extracted to analyze the TNF levels using ELISA and also used for western blot. To detect the protein expression in mice brain tumor tissues upon drug treatment, the same procedure was performed in orthotopic models. Additionally, with orthotopic models, mice were divided into four groups (control gavage group, erlotinib group, thalidomide group and erlotinib plus thalidomide, n=3). After 48 hours treatment tumors were harvested and subjected to Western blot and immunostaining.
Tumors from nude mice brains were fixed in 10% formalin and embedded in paraffin. Paraffin-embedded sections were cut at five-micrometer thickness. Immunohistochemical staining was performed using the ABC streptavidin-biotin method with the Vectastain ABC kit (Vector Laboratories, Burlingame, CA, USA) according to the manufacturer's protocol. Briefly, after deparaffinization and rehydration, endogenous peroxidase activity was quenched by a 10 min incubation in 3% H2O2. For antigen retrieval, the tissue sections were boiled in 10 mM sodium citrate buffer (pH 6.0) for 20 minutes. Binding of primary anti-pERK (1:100, Cell Signaling Technology, 4376) or anti-pJNK antibody (1:200, Cell signaling Technology, 4668) or anti-pAXL(1:400, R&D, AF2228) was carried out overnight at 4° C. The signal was detected by using the Sigmafast 3,3′-Diaminobenzidine tablets (DAB; Sigma, St. Louis MO). The sections were counterstained lightly with hematoxylin. The IHC staining intensity was scored semiquantitatively as: 0=No positive staining; 1=1-25% tumor cells stained, 2=26%-75% tumor cells stained and 3=>75% tumor cells stained.

GAS6 promoter = assay: ChIP assay, c-Jun on the GAS6 promoter; format: cell-based, human; details: erlotinib 1 μM, 24 h; GBM9 and U87EGFRwt cells
Procedure: GBM9 and U87EGFRwt cells were cultured in 15 cm plate per reaction for assay. ChIP assays were carried out using ChIP chromatin immunoprecipitation kit (Millipore) following manufacturer's instructions. The ChIP-enriched DNA samples were quantified by PCR using Platinum Taq DNA polymerase (Invitrogen). Putative AP-1 binding sites on GAS6 promoter were predicted by Using TFBIND program. The following primer pairs covering AP-1 sites were used: 5′-[…]-3′ (SEQ ID NO:1) and 5′-[…]-3′ (SEQ ID NO:2).

[2] = test system: U87EGFRwt and U87EGFRvIII cells; assay: AlamarBlue cell viability assay, established GBM cell lines; format: cell-based, human; details: established GBM cell lines expressing EGFRwt or EGFRvIII, erlotinib 10 μM
Procedure: Cell viability assay was conducted using AlamarBlue cell viability assay kit (ThermoFisher) following manufacturer's protocol. Cells were cultured in Corning 96-well black plates with clear bottom (5000 cells/well). Drugs were added to cells for 72 hour following detection using POLARstar Omega Microplate Reader (excitation at 544 nm and emission at 590 nm) (BMG LABTECH, Germany).

Axl = assay: Western blot, Axl activation (pAxl) in glioma cells; details: erlotinib 48 h; patient derived GBM neurospheres and all cell lines examined
Procedure: Western blot analysis was performed according to standard protocols. In all experiments, before the addition of EGF or erlotinib established cells were cultured overnight in serum free DMEM and primary GBM neurospheres were EGF starved overnight. Cells not treated with EGF or erlotinib were also serum or EGF starved. EGFR (06-847, 1 μg/ml) antibody was from Millipore. pEGFR-1068 (2236), pERK (4376) ERK (4695), p34 (9251), JNK (9252), STAT3(9139), pAkt (0915) and pSTAT3 (9131) antibodies were from Cell Signaling Technology (Danvers, MA) were used a 1/1000 dilution; TNFR1 (sc-8436), ERK2 (sc-154). Akt (sc-1619), and β-Actin (sc-47778) were from Santa Cruz Biotechnology (Dallas, TX) were used at a concentration of 1 μg/ml. GAS6 (AF885), pAxl (AF2228) and Axl (AF154) were from R&D Biosystems (Minneapolis, MN) were used at a concentration of 1 μg/ml c-JUN antibody (ab31419) was from Abcam (Cambridge, MA) and was used at 2 μg per chromatin IP reaction.

[3] = Toxicity and body weight of treated tumor-bearing mice; details: in combination with thalidomide or SP600125, total of 10 days
GBM9 cells = assay: Cell proliferation by cell counting (trypan blue dye exclusion); format: cell-based, human; details: 72 hours
Procedure: FIG. 15A GBM9 cells were plated in 6 well plated and treated with drugs as indicated. Cell proliferation was measured through cell counting using the trypan blue dye exclusion test. […] Erlotinib vs erlotinib+SP: P=0.0016, t=7.60, d.f.=4; Erlotinib vs erlotinib+U: P=0.0012, t=8.24, d.f.=4.

[4] = test system: AP-1 transcriptional activity; assay: AP-1 luciferase reporter assay; format: cell-based, human; details: erlotinib 1 μM, 24 h; GBM9 and U87EGFRwt cells
Procedure: (§1) Cells were plated in 48 well dishes to 70%-80% confluence followed by with […] or 3xAP1pGL3 reporter plasmid using lipofectamine 2000. A dual-luciferase reporter assay system was used according to manufacturer's instructions (Promega, Madison WI). Firefly luciferase activity was measured in a luminometer and normalized on the basis of Renilla luciferase activity. Experiments were done in triplicate and 3 independent experiments were done.

Akt, STAT3 = assay: Western blot, Akt and STAT3 activation in glioma cells; format: cell-based, human
Procedure: Western blot analysis was performed according to standard protocols.

[5] = test system: NF-κB transcriptional activity; assay: NF-κB luciferase reporter assay; format: cell-based, human; details: erlotinib 24 h, 100 nM GBM9, 1 uM U87EGFRwt; LPS 1 μg/ml
Procedure: as §1

GBM = details: human, in vivo; cited from earlier work
ERK = assay: Western blot, ERK activation (pERK) in glioma cells; details: GBM9 neurospheres
Procedure: Western blot analysis was performed according to standard protocols. In all experiments, before the addition of EGF or erlotinib established cells were cultured overnight in serum free DMEM and primary GBM neurospheres were EGF starved overnight. Cells not treated with EGF or erlotinib were also serum or EGF starved.

Structure (SMILES): C#Cc1cccc(Nc2ncnc3cc(OCCOC)c(OCCOC)cc23)c1 [erlotinib]
- JNK-Axl-ERK signaling axis in intracranial tumors (Western blot) ([1]; erlotinib 50 mg/kg): Activation of the JNK-Axl-ERK signaling axis can be detected in intracranial tumors
- pAxl, pJNK and pERK immunostaining of brain sections ([1]; orthotopic model): higher expression of pAxl, pJNK and pERK compared to vehicle group
- Binding of c-Jun to the GAS6 promoter (GAS6 promoter): binding of cJun to the GAS6 promoter
- Cell viability, erlotinib alone [2]: completely resistant
- Axl phosphorylation (Axl): phosphorylation of the RTK Axl
- Short term toxicity [3]: without significant immediate short term toxicity
- Cell growth / cell numbers, combination with erlotinib (GBM9 cells): significant decreases in cell numbers
- AP-1 reporter activity [4]: increased activity of the AP-1 reporter
- Akt or STAT3 activation (Akt, STAT3; GBM9 neurospheres, erlotinib 1 μM): did not detect an increase in Akt or STAT3 activation
- STAT3 and Akt activation at higher concentration (Akt, STAT3; glioma cells, erlotinib 10 μM or afatinib 10 μM): STAT3 and Akt activation are suppressed
- NF-κB reporter / transcriptional activity [5]: does not result in an increase in NF-κB reporter activity
- Clinical efficacy in GBM patients (GBM): also not effective
- ERK activation after addition of erlotinib (ERK; erlotinib 1 μM, early time points): decreased after addition of erlotinib
- Feedback reactivation of ERK under continued EGFR inhibition (ERK; erlotinib 1 μM or afatinib 100 nM): reactivation of ERK is seen at 24-48 h
